Assay results from article PMC6350621, “Small-molecules that covalently react with a human prolyl hydroxylase – towards activity modulation and substrate capture” (Chemical Communications (Cambridge, England), 2018).

Experiments:
PHD2_181–402 = biological target: T1, PHD2_181–402 (Homo sapiens, UniProt Q9GZT9); test: Non-denaturing ESI-MS crosslinking, C-terminal truncated PHD2; assay type: binding; details: equimolar Fe(II) and compound, 3 h, 37 °C, 200 V
T1 construct: C-terminal truncated PHD2 (PHD2_181–402); His6 (N, cleaved yes); made in house; host or cells: bacterial culture (2x TY, kanamycin, IPTG)
Experimental: The site of crosslinking of 3 was investigated using protein variants. First, 3 was incubated with C-terminal truncated PHD2 (PHD2_181–402) and a loop deletion variant (deletion of residues 238–250, PHD2Δ). […] Thus, 3 was incubated with PHD2 constructs truncated at residues 402, 410, 414 and 418. […] Crosslinking experiments with PHD2 R411M implied that R411 is not directly involved in crosslinking (Fig. S11, ESI ^†).
Fig. 3 (A) Non-denaturing ESI-MS data on the flexible loop truncated (top) and C-terminal tail tuncated (bottom) versions of PHD2 in the presence of equimolar Fe(II) and 3 (3 hour incubation, 37 °C. Cone voltage: 200 V). A = [PHD2Δ + Fe], B = [PHD2Δ + Fe + 3], C = [PHD2_181–402 + Fe], D = [PHD2_181–402 + Fe + 3]. (B) MS/MS spectrum of the trypsin derived peptide 403[…]411 crosslinked to 3 identified K408 as the site of crosslinking.
(§1) Fig. S8 Temperature dependence of the rate of crosslinking of 3 with PHD2. PHD2 (20 µM) was incubated with equimolar Fe(II) and 3 in buffer (50 mM Tris, 150 mM NaCl, pH 7.5) at 4, 20 and 37 °C. The ratio of crosslinking after 1, 2, and 4 h was determined by ESI-MS under denaturing conditions (n = 2), error bars represent 1 standard deviation.
Fig. S9 Ratio of crosslinked PHD2.3 before evaluation of catalytic activity. Labelled peaks correspond to: (A): PHD2, […]

PHD2 = biological target: T2, PHD2 (Homo sapiens, UniProt Q9GZT9); test: Denaturing ESI-MS of crosslinking with PHD2; assay type: binding
T2 construct: PHD2_181–426 (hereafter PHD2); His6 (N, cleaved yes); made in house; host or cells: bacterial culture (2x TY, kanamycin, IPTG)
Experimental: In contrast to the likely imine adducts formed with 1/2, the PHD2·Fe·3 covalent adduct was stable to the acidic conditions of denaturing MS. […] The crosslinking could be fitted by a one-site decay function (R^2 = 0.99, GraphPad Prism), consistent with a quasi intramolecular reaction of the PHD2·Fe·3 non-covalent species to give a covalent adduct (Fig. S5, ESI ^†).
Fig. S7 Time-course analysis of crosslinking between PHD2 and 3. PHD2 (20 µM) was incubated (37 °C, 4 h) with FeSO4 (20 µM) and 3 (30 µM). Samples were taken at regular intervals, quenched by acidification and the ratio of covalent crosslinking analysed by ESI-MS under denaturing conditions. Above: overlaid deconvoluted mass spectra; Below: variation of crosslinking with time. Data represent mean intensities of repeats (n=3), error bars show 1 standard […]
as §1
Fig. S9 Ratio of crosslinked PHD2.3 before evaluation of catalytic activity.
100 μM. FeSO4·7H2O was dissolved in 20 mM HCl at a concentration of 100 mM. This solution was then diluted with MilliQ purified water to give a final working concentration of 100 μM. The protein was mixed with the Fe(II) solution and the inhibitor solution to give final concentrations of 20 μM PHD2, 20 μM Fe(II), and 20 μM inhibitor. The resultant solution was incubated for the appropriate time (specified in the text) at 37 […]
(5 min or 20 min) at 37 °C. After incubation, the samples were immediately analysed by ESI-MS.
1.1.2 Denaturing mass spectrometry
Intact protein masses were obtaine by liquid chromatography-mass spectrometry (LC-MS) using a Waters LCT premier XE time-of-flight mass spectrometer interfaced with a Waters 1525u HPLC pump and Waters […]
The protein sample (10 µM, 5 µl) was injected onto a Chromolith FastGradient RP-18 2x50mm Monolithic reverse phase HPLC column and eluted at 0.4 ml.min-1 using a gradient system from Solvent A (water, 0.1 % (v/v) formic acid) to Solvent B (acetonitrile, 0.1 % (v/v) formic acid) according to the following conditions:
Time (Min) %A %B Flow Rate (ml.min-1)
The eluent was transferred directly to the mass spectrometer. The following MS parameters were used:
Capillary voltage – 3,000 V; Sample cone voltage – 50 V; Extraction cone voltage – 1V; Desolvation temperature – 250 °C; Source temperature – 100 °C; Cone gas flow – 100 l.hour-1; Desolvation gas flow (N2) – 830 l.hour-1. Data were processed with MassLynx™ v4.0 (Waters) and protein peaks were deconvoluted using the Maximum Entropy method (MaxEnt1).
1.1.3 Analysis of protein activity by peptide turnover assay using MALDI-MS detection2 PHD2 (20 µM), Fe(II) (20 µM) and the inhibitor (30 µM) in buffer (15 mM ammonium acetate, pH 7.5) were incubated for the appropriate time (specified in the text) at 37 °C. Subsequently, the enzyme (1.5 µL, final […]
ascorbate (1 mM), 2-oxoglutarate (100 µM) and the respective inhibitor (30 µM) in buffer (50 mM Tris, 150 mM NaCl). In the positive control no inhibitor was added. The resultant mixture was incubated at 37 °C and samples ([…]) were taken at regular intervals and quenched by addition of 1% (v/v) aqueous formic acid ([…]). Samples were analysed using a MALDI micro MX mass spectrometer (Waters) in the reflectron positive ion mode. Data were processed using MassLynx v4.0. The yield of crosslinking was determined by comparison of the signal intensities for crosslinked and unmodified protein.
1.1.4 Analysis of protein activity by peptide turnover assay using the AlphaScreen™ 3 The assay consisted of three parts: pre-incubation with inhibitor, the PHD2 hydroxylation reaction, and incubation with the AlphaScreen™ bead mix.

T2 sequence (Q9GZT9 181-426): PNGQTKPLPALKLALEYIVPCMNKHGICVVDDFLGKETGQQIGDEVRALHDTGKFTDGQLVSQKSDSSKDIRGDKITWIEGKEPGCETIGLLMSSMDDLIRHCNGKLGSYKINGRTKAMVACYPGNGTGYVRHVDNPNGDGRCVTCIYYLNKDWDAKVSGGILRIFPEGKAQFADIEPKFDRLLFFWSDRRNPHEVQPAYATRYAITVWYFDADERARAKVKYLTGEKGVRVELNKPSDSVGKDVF
T1 sequence (Q9GZT9 181-402): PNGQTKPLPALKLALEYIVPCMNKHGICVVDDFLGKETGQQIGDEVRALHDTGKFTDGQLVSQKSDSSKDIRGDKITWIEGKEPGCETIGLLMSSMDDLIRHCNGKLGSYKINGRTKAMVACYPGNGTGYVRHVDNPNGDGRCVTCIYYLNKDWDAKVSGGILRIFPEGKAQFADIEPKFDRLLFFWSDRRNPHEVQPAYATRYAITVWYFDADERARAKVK

crosslinking with C-terminally truncated PHD2 (PHD2_181–402): near completely absent
conversion to crosslinked adduct at 4 °C (PHD2; 4 °C): little conversion
extent of crosslinking, 0 h pre-incubation (PHD2; PHD2 pre-incubated with compound 0 h): 0%
extent of crosslinking, 1 h pre-incubation (PHD2; PHD2 pre-incubated with compound 1 h): 50%
extent of crosslinking, 2 h pre-incubation (PHD2; PHD2 pre-incubated with compound 2 h): 66%
extent of crosslinking, 4 h pre-incubation (PHD2; PHD2 pre-incubated with compound 4 h): 90%
conversion to crosslinked PHD2·Fe·3 after 3 h (PHD2; timecourse, 37 °C, 3 h, PHD2 20 µM, FeSO4 20 µM, compound 30 µM): near complete conversion
SMILES: C=CC(=O)Nc1cccc(C(=O)NCC(=O)O)c1O [compound 3]
